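Tested at 5 concentrations; 48 h exposure; 96-well plates; endpoints linearly interpolated, else capped at highest concentration. TGI: concentration producing complete growth inhibition.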 *1 amine or outer side, *2 acyl side, *3 side chain or, on linkers, in order; H or OH if unused. Where a SMILES comes first, the peptide text is derived from it. Bridges are numbered along the chain shown (N, C = ends). [ ]: non-standard residue; d: D form. ξ: configuration not given here. X35 = CC[C@H](C)[C@@H](N[*:1])[C@@H](O)CC(=O)O[C@H](C(=O)[C@H](C)C(=O)[*:2])C(C)C; NMeY = CN[C@@H](Cc1ccc(O)cc1)C(=O)O; dNMeL = CN[C@H](CC(C)C)C(=O)O; ξΔPro = O=C(O)C1C=CCN1
Columns and labels:
Assay in all cases: NCI tumour cell line growth inhibition, 48 h
KM12 colon = tested on: KM12 colon
MOLT-4 leukemia = tested on: MOLT-4 leukemia
ACHN renal = tested on: ACHN renal
T-47D breast = tested on: T-47D breast
RPMI-8226 leukemia = tested on: RPMI-8226 leukemia
NCI-H23 lung = tested on: NCI-H23 lung
U251 CNS = tested on: U251 CNS
HCC-2998 colon = tested on: HCC-2998 colon

SMILES	TGI (KM12 colon)	TGI (MOLT-4 leukemia)	TGI (ACHN renal)	TGI (T-47D breast)	TGI (RPMI-8226 leukemia)	TGI (NCI-H23 lung)	TGI (U251 CNS)	TGI (HCC-2998 colon)
O=NN1CCCS1(=O)=O	> 100 µM	> 100 µM	> 100 µM	> 100 µM	> 100 µM	> 100 µM	> 100 µM	> 100 µM
Cc1ccc(/C=C2/NC(=S)SC2=O)cc1	> 100 µM	> 100 µM	> 100 µM	> 100 µM		64.8 µM	> 100 µM	> 100 µM
CCOC(=O)Cc1csc(N=Nc2c(O)[nH]c3ccccc23)n1	> 100 µM	73.1 µM	> 100 µM	> 100 µM	> 100 µM	> 100 µM	> 100 µM	> 100 µM
COc1cc(C)cc2c(-c3c(O)cc(O)c4c3C[C@H](C)N[C@H]4C)cc(-c3cc(-c4c(O)cc(O)c5c4C[C@H](C)N[C@H]5C)c4cc(C)cc(OC)c4c3O)c(O)c12	> 100 µM	> 100 µM	> 100 µM	> 100 µM	> 100 µM	> 100 µM	> 100 µM	> 100 µM
COC(=O)/C=C1\C(=O)C=C2[C@@H]3C[C@H]4C[C@H](CC[C@@]4(C)N21)C3(C)NC(C)=O (some centres not stated)	33.2 µM	34.3 µM	46 µM	> 27.8 µM	> 100 µM	> 60.6 µM	> 56.9 µM	> 64.9 µM
COC1(OC)C=CC(=O)C=C1	25.8 µM	> 95.2 µM	8.56 µM	10.7 µM	13.5 µM	10.6 µM	4.9 µM	15.4 µM
COC(=O)[C@](C)(Cc1ccccc1)NC(=O)[C@@H](C)N1[C@@H](c2ccccc2)COC1(C)C	> 100 µM	> 100 µM	> 100 µM	> 100 µM	> 100 µM	> 100 µM	> 100 µM	
Cc1nc2cccc(F)c2c(=O)n1-c1nnc(C(F)(F)F)s1	> 10 µM	> 10 µM	> 10 µM	> 10 µM	> 10 µM	> 10 µM	> 10 µM	> 10 µM
NC1c2c(Cl)sc(Cl)c2C(=O)C1O (configuration not stated)	> 100 µM	57.5 µM	99.6 µM	> 100 µM		32.5 µM	60 µM	30.7 µM
O=[N+]([O-])c1ccc2nc(/C=C(\O)c3ccc(Cl)cc3)c(/C=C(\O)c3ccc(Cl)cc3)nc2c1	> 100 µM	> 100 µM	> 100 µM	> 100 µM		> 100 µM	> 100 µM	> 100 µM
C=CCc1ccccc1C1CC2(C(=O)OC)OC1C(C(=O)OC)=C2C(=O)OC (configuration not stated)	> 10 µM	> 10 µM	> 10 µM	> 10 µM	> 10 µM	> 10 µM	> 10 µM	> 10 µM
COC(=O)c1cc(C)ccc1/C=C1\Cc2c(C)cc(C)cc2C1=O	> 100 µM	> 100 µM	> 100 µM	> 100 µM	> 100 µM	> 72.3 µM	42.9 µM	> 100 µM
Nn1c(Sc2nc3ccccc3c(=O)n2N)nc2ccccc2c1=O	> 62.3 µM	3.69 µM	26.4 µM	> 51.8 µM	11.5 µM	5.43 µM	20 µM	30.7 µM
CCN(CC)C1Oc2cc3c(cc2C(c2cc(OC)c(OC)c(OC)c2)C1C)OCO3 (configuration not stated)	30.7 µM	13.1 µM	> 38.7 µM	> 88.7 µM	20.2 µM	> 49 µM	6.89 µM	19.8 µM
C=CC(OC(C)=O)c1ccc(OC(C)=O)cc1 (configuration not stated)	18.6 µM	> 44 µM	6.26 µM	8.24 µM	5.92 µM	37.3 µM	5.65 µM	18.6 µM
COc1cc2oc(=O)cc(C)c2cc1OC	> 100 µM	> 100 µM	> 100 µM		> 100 µM	> 100 µM	> 100 µM	
NC(=S)N/N=C1\CCCC1C(O)(C(F)(F)Cl)C(F)(F)Cl (configuration not stated)	> 10 µM	> 10 µM	> 10 µM	> 10 µM	> 10 µM	> 10 µM	> 10 µM	> 10 µM
Cc1c(C#N)c(=N)oc2ccccc12	> 100 µM	> 100 µM	> 100 µM	> 100 µM	> 100 µM	> 100 µM	> 100 µM	> 100 µM
COc1ccc(OC)c(C[P+](c2ccccc2)(c2ccccc2)c2ccccc2)c1	14.1 µM	> 35.3 µM	> 64.2 µM	> 90 µM	6.39 µM	11.8 µM		26.2 µM
CC1CN=C(c2ccc(-c3nc(-c4ccc(C5=NCC(C)N5)cc4)nc(N(C)C)n3)cc2)N1 (configuration not stated)	8.96 µM	3.79 µM	11.5 µM	12.9 µM	17.9 µM	9.94 µM	2.35 µM	3.76 µM
NC(=S)NNC(=S)NC(=O)c1ccco1	> 10 µM	> 10 µM	> 10 µM	> 10 µM	> 10 µM	> 10 µM	> 10 µM	> 10 µM
COc1cc2c(cc1OC)C(=O)/C(=C/c1ccc(O)cc1)CC2	> 10 µM	> 10 µM	> 10 µM	> 10 µM	> 10 µM	> 10 µM	> 10 µM	> 10 µM
O=c1oc2cccnc2n1CCCCN1CCN(c2ccccc2)CC1		> 100 µM	> 100 µM	> 100 µM	> 100 µM	> 100 µM	> 100 µM	> 100 µM
CCn1c(=O)c2c3ccc(OC(C)=O)cc3[nH]c2c2ccc(OC(C)=O)cc21	> 100 µM	74.5 µM	89.6 µM	93.9 µM		> 100 µM	> 100 µM	54.4 µM
CC(=Nc1cc(Cl)cc(Cl)c1)c1ccncc1	> 100 µM	> 100 µM	> 100 µM	> 100 µM	> 100 µM	> 100 µM	> 100 µM	> 100 µM
O=C(O)COc1cc(-c2ccccc2)nc2ccccc12	> 100 µM	> 100 µM	> 100 µM	> 100 µM	> 100 µM	> 100 µM	> 100 µM	> 100 µM

SMILES	TGI (KM12 colon)	TGI (MOLT-4 leukemia)	TGI (ACHN renal)	TGI (T-47D breast)	TGI (RPMI-8226 leukemia)	TGI (NCI-H23 lung)	TGI (U251 CNS)	TGI (HCC-2998 colon)
CCOC(=O)CCC(NC(=O)OCc1ccccc1)C(=O)NC(CCC(=O)OCC)C(=O)NC(CCC(=O)OCC)C(=O)NNC(=O)OC(C)(C)C (configuration not stated)		> 100 µM	> 100 µM		> 100 µM	> 100 µM	> 100 µM	> 100 µM
O=c1c2cc(Br)ccc2ncn1COCc1ccccc1	> 100 µM	> 100 µM	74 µM				> 100 µM	> 100 µM
Nc1ccc2c(c1)NC(=O)[C@@H]1CCCN1C2=O	> 100 µM	> 100 µM	> 100 µM	> 100 µM	> 100 µM	> 100 µM	> 100 µM	> 100 µM
C=C(CCOC)CCC1CCCCC(=C)[C@H]1O (some centres not stated)	> 100 µM	> 100 µM	> 100 µM	> 100 µM	> 100 µM	> 100 µM	> 100 µM	
O=C1c2ccccc2C(=O)c2nn(N=P(CP(=Nn3nc4c(n3)C(=O)c3ccccc3C4=O)(c3ccccc3)c3ccccc3)(c3ccccc3)c3ccccc3)nc21	> 100 µM	> 100 µM	> 100 µM	> 100 µM	> 100 µM	> 100 µM	> 100 µM	> 100 µM
COc1cc2c(cc1O)CCN(C)[C@H]2Cc1ccc(Oc2c(O)c(OC)cc3c2C[C@H]2c4c(c(OC)c(OC)c(OC)c4-3)CCN2C)cc1	8.89 µM	11 µM	10.7 µM	12.2 µM	5.09 µM	12.9 µM	9.05 µM	8.09 µM
NNC(=O)Cn1ccnn1	> 100 µM	> 100 µM	> 100 µM		> 100 µM	> 100 µM	> 100 µM	> 100 µM
Cc1cn(CCOCCOC(=O)NC(CCCNC(N)=O)C(=O)O)c(=O)[nH]c1=O (configuration not stated)	> 100 µM	> 100 µM	> 100 µM	> 100 µM	> 100 µM	> 100 µM	> 100 µM	> 100 µM
CC(C)(Cc1ccccc1)N1C(=O)N1C(C)(C)Cc1ccccc1	> 100 µM	55.6 µM		> 100 µM	38.5 µM	65.5 µM	> 100 µM	> 100 µM
CC[C@H](C)[C@H]1NC(=O)[C@@H](NC(=O)[C@@H](CC(C)C)N(C)C(=O)C2C=CCN2)[C@@H](C)OC(=O)[C@H](Cc2ccc(OC)cc2)N(C)C(=O)[C@@H]2CCCN2C(=O)[C@H](CC(C)C)NC(=O)[C@@H](C)C(=O)[C@H](C(C)C)OC(=O)C[C@@H]1O (some centres not stated) (H-[ξΔPro][dNMeL]T[X35]LP[NMeY](Me); ester 3-C)	0.447 µM	> 50 µM	0.061 µM	0.136 µM		0.0198 µM	0.738 µM	0.0488 µM
COC(=O)c1cc(C)ccc1C1CN=NC12Cc1c(C)cc(C)cc1C2=O (configuration not stated)	39.1 µM	56.2 µM	> 100 µM	> 100 µM		50.4 µM	> 100 µM	78.2 µM
COc1cc2oc(-c3ccc4c(c3)OCO4)c(OC)c(=O)c2c(O)c1OC	> 50 µM	> 50 µM	> 50 µM	> 50 µM		> 50 µM	> 50 µM	> 50 µM
COC(=O)[C@@]1(C)CCC[C@]2(C(=O)O)C3Cc4occc4[C@H](C)[C@@H]3CCC21 (some centres not stated)	> 100 µM	> 100 µM	> 100 µM	> 100 µM		> 100 µM	> 100 µM	> 100 µM
O=C1/C(=C/c2ccc(O)cc2)CCC1CNc1ccccc1 (configuration not stated)	22.7 µM		24.8 µM	55.2 µM	5.12 µM	30.4 µM	30.3 µM	35.8 µM
Cn1c2ccc(C3=NCCN3)cc2c2cc(C3=NCCN3)ccc21	> 100 µM	> 100 µM	> 100 µM	> 100 µM	> 100 µM	> 100 µM	> 100 µM	
O=c1nc2ccc3sc4ccccc4c(=O)c3n2c(=O)[nH]1	> 100 µM	> 100 µM	> 100 µM		> 100 µM	> 100 µM	> 100 µM	> 100 µM
O=[N+]([O-])c1ccc2c(c1)n1c(N3CCCC3)[n+]3ccccc3c1c1c3cccc[n+]3c(N3CCCC3)n21	> 100 µM	> 100 µM		> 100 µM	> 100 µM	> 100 µM	> 100 µM	> 100 µM
O=P(O)(O)C=C=C1CCCCC1	> 100 µM		> 100 µM	> 100 µM		> 100 µM	> 100 µM	> 100 µM
O=C(O)CCSC1=NCCN1	> 100 µM		> 100 µM	> 100 µM	> 100 µM	> 100 µM	> 100 µM	> 100 µM
COc1cccc(NC(=O)CC(=O)N2N=C(C)C(N=Nc3ccc(C(=O)O)cc3)C2=O)c1 (configuration not stated)	> 100 µM		> 100 µM	> 100 µM	> 100 µM	> 100 µM		> 100 µM
CC(C)(CN1CCCCC1)C(/C=C/c1ccccc1)=N\NC(=O)N/N=C(/C=C/c1ccccc1)C(C)(C)CN1CCCCC1	3.86 µM	4.02 µM	11.9 µM		3.96 µM	4.68 µM	3 µM	1.86 µM
COc1ccccc1NC(=S)N/N=C/c1ccccn1	> 31.6 µM		8.9 µM	1.95 µM	> 22.6 µM	6.01 µM	12.5 µM	32.9 µM
O=C(NCCCCCCO)c1cccc2cc3ccccc3nc12	33.9 µM	58.5 µM	39.2 µM	26 µM	47.3 µM		> 100 µM	
C[C@]12CC[C@H]3[C@@H](CCC4=C(Br)C(=O)C=C[C@@]43O)[C@@H]1CCC2=O	> 100 µM	> 100 µM	> 100 µM		> 100 µM	> 100 µM	> 100 µM	
Cc1nc(Nc2nc3ccccc3[nH]2)nc(Cl)c1CCCl	> 100 µM	> 100 µM	> 100 µM	> 100 µM	> 100 µM	> 100 µM	> 100 µM	
COc1cc2oc(=O)cc(C)c2c(OC)c1OC(C)=O	> 100 µM	> 100 µM	> 100 µM		> 100 µM	> 100 µM	> 100 µM	
